Tests used:
[1] = biological target: T1, CXCR-4 transfected U87 cell line (U87.CXCR4) (Homo sapiens, UniProt P61073); assay: Intracellular CXCL-12-induced calcium mobilization assay (FLIPR); type: cell-based; settings: U87.CXCR4 cells; CXCL-12 25-50 ng/mL; compound added 15 min before; read-out: IC50 CXCL-12 Ca^2+ flux U87.CXCR4+
T1 construct: expressed in transfected cells; host or cells: U87 (U87.CXCR4)
Method in brief: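 CXCL-12 (25-50 ng/mL) was the stimulus, and the intracellular calcium rise was tracked kinetically by FLIPR at 37 °C. Cells were U87.CXCR4 transfectants pre-loaded 45 min at 37 °C with 4 μM (final) Fluo-2 AM in HEPES-buffered HBSS with 0.2% BSA, pH 7.4.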

[2] = biological target: T2, Jurkat cells expressing CXCR4 (Homo sapiens, UniProt P61073); assay: Chemokine (CXCL12-AF647) binding inhibition assay; settings: CXCL12-AF647 25 ng/mL, read-out: IC50 CXCL-12 binding Jurkat
T2 construct: endogenous in cells; host or cells: Jurkat
Method in brief: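 Cells in HBSS, 20 mM HEPES, 0.2% BSA, pH 7.4, preincubated 15 min at room temperature with compound, then 25 ng/mL CXCL12-AF647 for 30 min. After washing and paraformaldehyde fixation, bound ligand read by flow cytometry; percent inhibition calculated from MFI relative to unlabeled and ligand-only controls.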

[3] = in vitro; settings: human, Caco-2, pH 7.4
Method in brief: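 Bidirectional permeability across Caco-2 monolayers in HBSS (pH 7.4) at a test concentration of 10 μM, incubated 0 and 90 min at 37° C (n=2). Monolayer integrity was assessed by TEER and Lucifer yellow. Papp was derived from LC-MS/MS-measured concentrations.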

T1 sequence (P61073 whole entry): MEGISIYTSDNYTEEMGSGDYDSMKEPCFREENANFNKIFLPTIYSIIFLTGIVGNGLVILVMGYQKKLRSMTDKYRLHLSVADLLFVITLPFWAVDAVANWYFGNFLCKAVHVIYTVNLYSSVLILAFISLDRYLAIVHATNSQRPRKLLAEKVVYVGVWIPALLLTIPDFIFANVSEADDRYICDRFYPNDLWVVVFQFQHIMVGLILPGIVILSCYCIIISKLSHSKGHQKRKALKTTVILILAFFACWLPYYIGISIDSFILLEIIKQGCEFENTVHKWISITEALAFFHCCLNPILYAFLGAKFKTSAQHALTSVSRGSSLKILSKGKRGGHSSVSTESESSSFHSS
T2 sequence (P61073 whole entry): as above

SMILES | IC50 [1] | IC50 [2] | Papp A→B at 90 min, 10 μM [3] | Papp B→A at 90 min, 10 μM [3] | efflux ratio at 90 min, 10 μM [3]
Cc1nccnc1[C@@H]1CCC[C@H](c2nc3cccc(N4CCN(C)CC4)c3[nH]2)N1C [I-105] | ≥ 1000 nM | 100 to 1000 nM | 0.1 to 10 ×10⁻⁶ cm/s | 10 to 30 ×10⁻⁶ cm/s | 0.1 to 10
Cc1cccnc1[C@@H]1CCC[C@H](c2nc3cccc(N4CC5CCC(C4)N5)c3[nH]2)N1C [I-98] | 0.01 to 100 nM | 0.01 to 100 nM | 0.1 to 10 ×10⁻⁶ cm/s | 10 to 30 ×10⁻⁶ cm/s | > 30
CN1CCN(c2cccc3nc([C@H]4CCC[C@@H](c5ncccc5OC5CC5)N4C)[nH]c23)CC1 [I-72] | ≥ 1000 nM | 100 to 1000 nM | 10 to 30 ×10⁻⁶ cm/s | 10 to 30 ×10⁻⁶ cm/s | 0.1 to 10
CN1CCC(c2cccc3nc([C@H]4CCC[C@@H](c5ncccc5Cl)N4)[nH]c23)CC1 [I-152] | 0.01 to 100 nM | 0.01 to 100 nM | 0.1 to 10 ×10⁻⁶ cm/s | 10 to 30 ×10⁻⁶ cm/s | 0.1 to 10
CN1CCN(c2cccc3nc([C@H]4CCC[C@@H](c5ncccc5OC(F)(F)F)N4C)[nH]c23)CC1 [I-63] | 0.01 to 100 nM | 100 to 1000 nM | 10 to 30 ×10⁻⁶ cm/s | 0.1 to 10 ×10⁻⁶ cm/s | 0.1 to 10
CN1CCC(n2ccnc2[C@H]2CCC[C@@H](c3ncccc3Cl)N2)CC1 [I-172] | ≥ 1000 nM | ≥ 1000 nM | 10 to 30 ×10⁻⁶ cm/s | 10 to 30 ×10⁻⁶ cm/s | 0.1 to 10
CN1CCN(c2cccc3nc([C@H]4CCC[C@@H](c5nccn6cccc56)N4C)[nH]c23)CC1 (stereo in doubt) [I-90] | 100 to 1000 nM | 0.01 to 100 nM | 10 to 30 ×10⁻⁶ cm/s | 10 to 30 ×10⁻⁶ cm/s | 0.1 to 10
CN1CCN(c2cccc3nc([C@H]4CCC[C@@H](c5ccccn5)N4C)[nH]c23)CC1 [I-29, 2-((2R,6S)-1-methyl-6-(pyridin-2-yl)piperidin-2-yl)-7-(4-methylpiperazin-1-yl)-1H-benzo[d]imidazole] | 100 to 1000 nM | 0.01 to 100 nM | 10 to 30 ×10⁻⁶ cm/s | 10 to 30 ×10⁻⁶ cm/s | 0.1 to 10
Cc1cccnc1[C@@H]1CCC[C@H](c2nc3cccc(OC4CCN(C(C)C)CC4)c3[nH]2)N1C [I-44] | 0.01 to 100 nM | 0.01 to 100 nM | 0.1 to 10 ×10⁻⁶ cm/s | 10 to 30 ×10⁻⁶ cm/s | 0.1 to 10
Cc1cccnc1[C@@H]1CCC[C@H](c2nc3ccccc3[nH]2)N1CCc1ccccn1 [I-27, 2-((2R,6S)-6-(3-methylpyridin-2-yl)-1-(2-(pyridin-2-yl)ethyl)piperidin-2-yl)-1H-benzo[d]imidazole] | 0.01 to 100 nM | 0.01 to 100 nM | 10 to 30 ×10⁻⁶ cm/s | 10 to 30 ×10⁻⁶ cm/s | 0.1 to 10
Cc1cccnc1[C@@H]1CCC[C@H](c2nc3cccc(N4CCN(C)C(C)(C)C4)c3[nH]2)N1C [I-55] | 0.01 to 100 nM | 0.01 to 100 nM | 10 to 30 ×10⁻⁶ cm/s | 10 to 30 ×10⁻⁶ cm/s | 0.1 to 10
Cc1cccnc1[C@@H]1CCC[C@H](c2nc3cccc(C4CCNCC4)c3[nH]2)N1C [I-11, 2-((2R,6S)-1-methyl-6-(3-methylpyridin-2-yl)piperidin-2-yl)-7-(piperidin-4-yl)-1H-benzo[d]imidazole] | 0.01 to 100 nM | 0.01 to 100 nM | 0.1 to 10 ×10⁻⁶ cm/s | 10 to 30 ×10⁻⁶ cm/s | > 30
CN(C)CCCn1ccnc1[C@H]1CCC[C@@H](c2ncccc2Cl)N1C [I-169] | 100 to 1000 nM | 0.01 to 100 nM | 0.1 to 10 ×10⁻⁶ cm/s | > 30 ×10⁻⁶ cm/s | 0.1 to 10
Cc1cccnc1[C@@H]1CCC[C@H](c2nc3ccccc3n2CCCN)N1C [I-2, 3-(2-((2R,6S)-1-methyl-6-(3-methylpyridin-2-yl)piperidin-2-yl)-1H-benzo[d]imidazol-1-yl)propan-1-amine] | 0.01 to 100 nM | 0.01 to 100 nM | 0.1 to 10 ×10⁻⁶ cm/s | 10 to 30 ×10⁻⁶ cm/s | > 30
CC(C)N1CCN(c2cccc3nc([C@H]4CCC[C@@H](c5ncccc5Cl)N4)[nH]c23)CC1 [I-148] | 0.01 to 100 nM | 0.01 to 100 nM | 10 to 30 ×10⁻⁶ cm/s | 10 to 30 ×10⁻⁶ cm/s | 0.1 to 10
Cc1cccnc1[C@@H]1CCC[C@H](c2nc3cccc(N4C[C@@H](C)N[C@@H](C)C4)c3[nH]2)N1C [I-51] | 0.01 to 100 nM | 0.01 to 100 nM | 0.1 to 10 ×10⁻⁶ cm/s | 10 to 30 ×10⁻⁶ cm/s | 0.1 to 10
Cc1c(Cl)ccnc1[C@@H]1CCC[C@H](c2nc3cccc(N4CCN(C)CC4)c3[nH]2)N1 [I-140] | 0.01 to 100 nM | 0.01 to 100 nM | 0.1 to 10 ×10⁻⁶ cm/s | 10 to 30 ×10⁻⁶ cm/s | 0.1 to 10
CN1CCC(n2ccnc2[C@H]2CCC[C@@H](c3ccccn3)N2)CC1 [I-180] | ≥ 1000 nM | ≥ 1000 nM | 0.1 to 10 ×10⁻⁶ cm/s | 10 to 30 ×10⁻⁶ cm/s | 0.1 to 10
Cc1cccnc1[C@@H]1CCC[C@H](c2nc3cccc(OC4CCN(C)CC4)c3[nH]2)N1C [I-42] | 0.01 to 100 nM | 0.01 to 100 nM | 0.1 to 10 ×10⁻⁶ cm/s | 10 to 30 ×10⁻⁶ cm/s | 0.1 to 10
Cc1cccnc1[C@@H]1CCC[C@H](c2nc3ccccc3n2CCC#N)N1C [I-160] | ≥ 1000 nM | 100 to 1000 nM | > 30 ×10⁻⁶ cm/s | > 30 ×10⁻⁶ cm/s | 0.1 to 10
Cc1cccnc1[C@@H]1CCC[C@H](c2nc3cccc(C4CCN(C)CC4)c3[nH]2)N1 [I-151] | 0.01 to 100 nM | 0.01 to 100 nM | 0.1 to 10 ×10⁻⁶ cm/s | 10 to 30 ×10⁻⁶ cm/s | 0.1 to 10
CCc1cccnc1[C@@H]1CCC[C@H](c2nc3cccc(N4CCN(C)CC4)c3[nH]2)N1C [I-114] | 0.01 to 100 nM | 0.01 to 100 nM | 10 to 30 ×10⁻⁶ cm/s | 10 to 30 ×10⁻⁶ cm/s | 0.1 to 10
Cc1cccnc1[C@@H]1CCC[C@H](c2nc3ccccc3n2CC2CCCNC2)N1C (stereo partly drawn) [I-12, 2-((2R,6S)-1-methyl-6-(3-methylpyridin-2-yl)piperidin-2-yl)-1-(piperidin-3-ylmethyl)-1H-benzo[d]imidazole] | 0.01 to 100 nM | 0.01 to 100 nM | 0.1 to 10 ×10⁻⁶ cm/s | 10 to 30 ×10⁻⁶ cm/s | 10 to 30
Cc1cccnc1[C@@H]1CCC[C@H](c2nc3ccccc3n2CCCCN2CCC(F)(F)CC2)N1C [I-41] | ≥ 1000 nM | 0.01 to 100 nM | 0.1 to 10 ×10⁻⁶ cm/s | 0.1 to 10 ×10⁻⁶ cm/s | 0.1 to 10
[2H]C([2H])([2H])N1CCN(c2cccc3nc([C@H]4CCC[C@@H](c5ncccc5C)N4C)[nH]c23)CC1 [I-111] | 0.01 to 100 nM | 0.01 to 100 nM | 10 to 30 ×10⁻⁶ cm/s | 10 to 30 ×10⁻⁶ cm/s | –
CCN1CCN(c2cccc3nc([C@H]4CCC[C@@H](c5ncccc5Cl)N4)[nH]c23)CC1 [I-149] | 0.01 to 100 nM | 0.01 to 100 nM | 10 to 30 ×10⁻⁶ cm/s | 10 to 30 ×10⁻⁶ cm/s | 0.1 to 10

Reference: patent US10988465B2, “CXCR4 inhibitors and uses thereof” (X4 Pharmaceuticals, Inc., priority 2016, dated 2021)
